Like-named read-outs stand apart in the source and are kept apart here.
Tests used:
[1] = target: T1, SP9030 (human leukotriene receptor, SEQ ID NO: 2) (Homo sapiens, UniProt Q9NPC1); assay: Radioligand competition assay using ^3H-LTB4 as the label on membranes of COS-7 cells transfected with SP9030 cDNA; assay type: binding; details: for Ki: read-out: Ki (competition with ^3H-LTB4); for Affinity of the receptor for the ligand (in words): summary statement
T1 construct: The ORF of SP9030 was cloned in the expression vector pCR3.1 (pCR3.1-SP9030); expressed in transfected cells; host or cells: COS-7 cells (membranes)
T1 sequence (Q9NPC1 1-358): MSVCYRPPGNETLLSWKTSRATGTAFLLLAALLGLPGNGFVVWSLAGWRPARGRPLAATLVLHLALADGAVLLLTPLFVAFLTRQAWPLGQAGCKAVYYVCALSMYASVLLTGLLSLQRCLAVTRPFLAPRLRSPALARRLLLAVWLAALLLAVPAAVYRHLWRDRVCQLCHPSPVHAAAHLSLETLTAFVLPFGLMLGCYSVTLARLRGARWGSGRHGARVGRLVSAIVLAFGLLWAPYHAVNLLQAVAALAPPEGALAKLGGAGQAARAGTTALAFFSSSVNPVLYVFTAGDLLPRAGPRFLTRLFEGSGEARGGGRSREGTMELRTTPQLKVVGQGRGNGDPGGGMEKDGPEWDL
Procedure: COS-7 cells, grown in DMEM/10% FCS until 80-90% confluence, were transfected with SuperFect agent (Giagene) at 20 μg DNA/150 mm plate. Forty eight hours after transfection, medium was changed to Opti-MEM or DMEM/Opti-MEM(1:1)/5% FCS. Cells were harvested 72 hours after transfection and membranes from the cells were prepared as follows. The cells were washed with 20 ml PBS without Ca^2+/Mg^2+ and incubated with 10 ml […] Hepes pH 7.4, 0.5 mM PMSF, 20 μg/ml aprotinin. The cells were scraped off the plate and vortexed. The cell suspension was then centrifuged at 13,000 g at 4° C. for 15 min. The pellets were re-suspended in 1.8 ml 50 mM Tris-Cl, pH 7.5 and vortexed. The membranes were homogenized with a 23-gauge needle. The protein concentration of the membrane preparations was determined with the BCA agents (Pierce).
Radioligand binding assays were performed to test the ability of SP9030, when expressed in cultured cells, to bind ^3H-labeled leukotriene. The ORF of SP9030 was cloned in the expression vector pCR3.1 (pCR3.1-SP9030). COS-7 cells were transfected with pCR3.1-SP9030 or pCR3.1 alone (mock transfection). Two days after transfection, the normal growth medium DMEM/10% FCS was replaced by either Opti-MEM or DMEM-Opti-MEM/5% FCS. The cells were allowed to grow one more day and then membranes were prepared for use in binding assay.
The reactions were incubated for 1 hour at 4° C. while rotated slowly. Multiscreen FB filters (Millipore) pre-soaked with 50 μl binding assay buffer for 1 hour at room temperature were used to filter the binding assays and the filters were washed twice with 100 μl 50 mM TrisCl, pH 7.5 (ice cold). Fifty microliters of scintillation fluid was added to the filters and counted to detect the bound radioligands. For radioligand competition assays, 160 μl binding assay buffer containing appropriate membranes were mixed with 20 μl of binding assay buffer containing 6% DMSO (v/v) and various concentrations of competing compounds. […] The final concentration of radioligand was 0.25 nM. Incubation conditions were the same as that used for the above described saturation assays.
COS-7 cells transfected with SP9030 cDNA were harvested three days after transfection and membrane prepared from cells used for binding assays.

[2] = test system: 293-EBNA cells mock transfected without SP9030 cDNA; assay: Intracellular Ca2+ flux measurement (FLIPR) in mock transfected 293-EBNA cells; assay type: cell-based
Procedure: (§1) 293-EBNA cells, grown in DMEM containing 10% FCS until 80-90% confluence, were transfected with SuperFect transfection agent. The next day, cells were trypsinized off culture plates and washed with PBS lacking Ca^2+/Mg^2+. The cells were then seeded at a density of 35,000 cells per 100 μl medium) into 96-well plates that were pre-coated with poly-D-lysine (Becton Dickinson). The third day following transfection, medium was removed from cells and 100 μl Hank's balanced salt solution (lacking phenol red) containing 4 μM of Fluo-3, AM (Molecular Probes), 20 mM Hepes, pH 7.4, 0.1% (w/v) BSA and […] added and subsequently incubated at 37° C., 5% CO2 for 1 hour. The cells were then washed three times with 150 μl wash buffer containing HANK's BSS, 40 mM Hepes, pH 7.4 and […]. One hundred μl of the wash buffer was added after the final wash and Ca^2+ flux was measured after addition of 40 μl of wash buffer containing appropriate concentration of ligands. The FLIPR instrument (Molecular Device) was used in the measurement of Ca^2+ flux.
(§2) Intracellular function that the SP9030 receptor may mediate through activation by its ligand was examined in measurements of intracellular Ca^2+ flux.

[3] = target: T2, SP9030 expressed in 293-EBNA cells (Homo sapiens, UniProt Q9NPC1); assay: Intracellular Ca2+ flux measurement (FLIPR) in 293-EBNA cells expressing SP9030; assay type: cell-based; details: 293-EBNA cells transfected with SP9030, Fluo-3, FLIPR
T2 construct: expressed in transfected cells; host or cells: 293-EBNA cells
T2 sequence (Q9NPC1 1-358): T1 sequence (Q9NPC1 1-358)
Procedure: as §1, §2

| SMILES | Ki [1] | Affinity of the receptor for the ligand (in words) [1] | Ca2+ response to incubation with ligand [2] | Cellular Ca2+ release [3] | Ki ([1]; 0.25 nM ^3H-LTB4, Ki=EC50/(1+[^3H-LTB4]/Kd), Kd […]) |
| --- | --- | --- | --- | --- | --- |
| CCCCC[C@H](O)/C=C/C=C\C=C\C=C\[C@@H](O)[C@@H](O)CCCC(=O)O [lipoxin A4] | 112 ± 40 nM | high affinity | – | – | – |
| CCCCC/C=C\C[C@@H](O)/C=C/C=C/C=C\[C@@H](O)CCCC(=O)O [LTB4, leukotriene B4] | – | high affinity | did not respond | activated cellular Ca^2+ release | – |
| CCCCC[C@H](O)/C=C/C=C\C/C=C\C/C=C\CCCC(=O)O [15(5)-OH-5z, 8z, 11z, 13e)-eicosatetraenoic acid] | – | high affinity | – | – | – |
| CC/C=C\C/C=C\C[C@@H](O)/C=C/C=C/C=C\[C@@H](O)CCCC(=O)O [LTB5, leukotriene B5] | – | high affinity | – | – | 8.6 ± 5.3 nM |
